Source: ChEMBL document CHEMBL1124271, “Synthesis of ethyl 2-(4-chlorophenyl)-5-(2-furyl)-4-oxazoleacetate, a hypolipidemic agent, and related compounds” (1988)
The source made the active and inactive calls. The rule behind the calls is not given here.

Experiments:
Rattus norvegicus [1] = species: Rattus norvegicus; experiment: Hypolipidemic activity was expressed as percent decrease in triglycerides in Sprague-Dawley rats; assay type: functional; set-up: concentration or dose not given beside the values
Rattus norvegicus [2] = species: Rattus norvegicus; experiment: Hypolipidemic activity was expressed as percent decrease in serum cholesterol in Sprague-Dawley rats; assay type: functional; set-up: concentration or dose not given beside the values
Rattus norvegicus [3] = species: Rattus norvegicus; experiment: Ability to inhibit collagen -induced platelet aggregation in male SD rats; No evaluation; assay type: functional, organism-based
Rattus norvegicus [4] = species: Rattus norvegicus; experiment: The ability to inhibit platelet aggregation was tested; Inhibition >= 10% but < aspirin (34-96%); assay type: functional
Rattus norvegicus [5] = species: Rattus norvegicus; experiment: Hypolipidemic activity was expressed as percent decrease in triglycerides; assay type: functional; set-up: concentration or dose not given beside the values
Rattus norvegicus [6] = species: Rattus norvegicus; experiment: Hypolipidemic activity was expressed as percent decrease in serum cholesterol; assay type: functional; set-up: concentration or dose not given beside the values
Rattus norvegicus [7] = species: Rattus norvegicus; experiment: Inhibition of collagen-induced platelet aggregation in male SD rats; Inhibition >= 10% but < aspirin (34-96%).; assay type: functional
Rattus norvegicus [8] = species: Rattus norvegicus; experiment: The ability to inhibit platelet aggregation was tested; <10; assay type: functional
Rattus norvegicus [9] = species: Rattus norvegicus; experiment: Ability to inhibit collagen -induced platelet aggregation in male SD rats; <10; assay type: functional; set-up: concentration or dose not given beside the values
Rattus norvegicus [10] = species: Rattus norvegicus; experiment: Hypolipidemic activity was expressed as percent decrease in triglycerides; No evaluation; assay type: functional, organism-based
Rattus norvegicus [11] = species: Rattus norvegicus; experiment: Hypolipidemic activity was expressed as percent decrease in serum cholesterol in Sprague-Dawley rats; No evaluation; assay type: functional, organism-based
Rattus norvegicus [12] = species: Rattus norvegicus; experiment: Ability to inhibit collagen -induced platelet aggregation in male SD rats; NE means no evaluation; assay type: functional, organism-based
Rattus norvegicus [13] = species: Rattus norvegicus; experiment: Hypolipidemic activity was expressed as percent decrease in serum cholesterol; NE means no evaluation; assay type: functional, organism-based
Rattus norvegicus [14] = species: Rattus norvegicus; experiment: Hypolipidemic activity was expressed as percent decrease in triglycerides; NE means no evaluation; assay type: functional, organism-based
Rattus norvegicus [15] = species: Rattus norvegicus; experiment: Ability to inhibit collagen -induced platelet aggregation in male SD rats; Inhibition >= aspirin (34-96%); assay type: functional, organism-based

SMILES: CCOC(=O)Cc1nc(-c2ccc(Cl)cc2)oc1-c1ccc(S(=O)(=O)O)o1
- Reduction (Rattus norvegicus [1]): 23%
- Reduction (Rattus norvegicus [2]): -5%

SMILES: CCOC(=O)Cc1nc(-c2ccc(Cl)cc2)sc1-c1ccsc1
- inhibition (Rattus norvegicus [3]): No effect
- Reduction (Rattus norvegicus [1]): 21%
- Reduction (Rattus norvegicus [2]): -8%

SMILES: CCOC(=O)Cc1nc(-c2ccc(Cl)cc2)oc1-c1ccsc1
- Reduction (Rattus norvegicus [1]): 39%
- Inhibition (Rattus norvegicus [4]): >=10%
- Reduction (Rattus norvegicus [2]): 23%

SMILES: CC(C(=O)O)c1nc(-c2ccc(Cl)cc2)oc1-c1ccco1 (configuration not stated)
- Reduction (Rattus norvegicus [1]): 41%
- Reduction (Rattus norvegicus [2]): 16%

SMILES: CCCCCCCc1nc(CC(=O)O)c(-c2ccsc2)o1
- Reduction (Rattus norvegicus [5]): 27%
- Reduction (Rattus norvegicus [6]): 11%
- Inhibition (Rattus norvegicus [7]): >=10%

SMILES: CCOC(=O)C(C)(C)c1nc(-c2ccc(Cl)cc2)oc1-c1ccco1
- Reduction (Rattus norvegicus [1]): -25%
- Inhibition (Rattus norvegicus [8]): <10%
- Reduction (Rattus norvegicus [2]): -4%

SMILES: CCOC(=O)Cc1nc(-c2ccccc2)oc1-c1ccoc1
- Reduction (Rattus norvegicus [1]): 46%
- Inhibition (Rattus norvegicus [7]): >=10%
- Reduction (Rattus norvegicus [2]): 17%

SMILES: O=C(O)Cc1nc(-c2cccc(C(F)(F)F)c2)oc1-c1ccco1
- Reduction (Rattus norvegicus [1]): 50%
- Inhibition (Rattus norvegicus [7]): >=10%
- Reduction (Rattus norvegicus [2]): 8%

SMILES: O=C(O)Cc1nc(-c2ccc(Cl)cc2)oc1-c1ccco1
- Reduction (Rattus norvegicus [1]): 35%
- Inhibition (Rattus norvegicus [7]): >=10%
- Reduction (Rattus norvegicus [2]): 20%

SMILES: CCOC(=O)C(C)c1nc(-c2ccc(Cl)cc2)oc1-c1ccco1 (configuration not stated)
- Reduction (Rattus norvegicus [1]): 31%
- Inhibition (Rattus norvegicus [4]): >=10%
- Reduction (Rattus norvegicus [2]): 20%

SMILES: CCCCCCCOC(=O)Cc1nc(-c2ccc(Cl)cc2)oc1-c1ccco1
- Reduction (Rattus norvegicus [5]): 42%
- Reduction (Rattus norvegicus [6]): 19%
- Inhibition (Rattus norvegicus [9]): <10%

SMILES: CCOC(=O)Cc1nc(-c2ccc(C)cc2)oc1-c1ccco1
- Reduction (Rattus norvegicus [1]): -6%
- Inhibition (Rattus norvegicus [7]): >=10%
- Reduction (Rattus norvegicus [2]): 9%

SMILES: CCOC(=O)Cc1nc(-c2ccc(F)cc2)oc1-c1ccoc1
- Reduction (Rattus norvegicus [1]): 28%
- Inhibition (Rattus norvegicus [7]): >=10%
- Reduction (Rattus norvegicus [2]): 30%

SMILES: CCOC(=O)Cc1nc(-c2ccc(Cl)cc2)oc1-c1ccc(C(C)=O)o1
- Reduction (Rattus norvegicus [1]): -14%
- Reduction (Rattus norvegicus [2]): 0%

SMILES: CCOC(=O)Cc1nc(-c2ccccc2)oc1-c1ccco1
- Reduction (Rattus norvegicus [1]): 23%
- Inhibition (Rattus norvegicus [7]): >=10%
- Reduction (Rattus norvegicus [2]): 14%

SMILES: CCOC(=O)Cc1nc(-c2cccc(C(F)(F)F)c2)oc1-c1ccco1
- Reduction (Rattus norvegicus [1]): 0%
- Inhibition (Rattus norvegicus [9]): <10%
- Reduction (Rattus norvegicus [2]): 15%

SMILES: O=C(Cc1nc(-c2ccc(Cl)cc2)oc1-c1ccco1)OCc1cccnc1
- Reduction (Rattus norvegicus [1]): 42%
- Inhibition (Rattus norvegicus [9]): <10%
- Reduction (Rattus norvegicus [2]): 18%

SMILES: CCOC(=O)Cc1nc(-c2ccc(Cl)cc2)oc1-c1ccc(Br)o1
- Reduction (Rattus norvegicus [1]): 2%
- Reduction (Rattus norvegicus [2]): 10%

SMILES: O=C(O)Cc1nc(-c2ccc(F)cc2)oc1-c1ccco1
- Reduction (Rattus norvegicus [5]): 10%
- Reduction (Rattus norvegicus [6]): 20%
- Inhibition (Rattus norvegicus [7]): >=10%

SMILES: O=C(O)Cc1nc(-c2ccc(F)cc2)oc1-c1ccoc1
- Reduction (Rattus norvegicus [1]): 38%
- Inhibition (Rattus norvegicus [7]): >=10%
- Reduction (Rattus norvegicus [2]): 23%

SMILES: CCOC(=O)Cc1nc(-c2ccc(F)cc2)oc1-c1ccco1
- Reduction (Rattus norvegicus [1]): 24%
- Inhibition (Rattus norvegicus [7]): >=10%
- Reduction (Rattus norvegicus [2]): 20%

SMILES: CCOC(=O)Cc1nc(-c2ccc(OC)cc2)oc1-c1ccco1
- Reduction (Rattus norvegicus [1]): 4%
- Inhibition (Rattus norvegicus [7]): >=10%
- Reduction (Rattus norvegicus [2]): 0%

SMILES: CCOC(=O)Cc1nc(C(C)C)oc1-c1ccsc1
- Reduction (Rattus norvegicus [1]): 28%
- Inhibition (Rattus norvegicus [7]): >=10%
- Reduction (Rattus norvegicus [2]): 15%

SMILES: CCOC(=O)Cc1nc(-c2ccccc2)oc1C1CCCO1 (configuration not stated)
- Reduction (Rattus norvegicus [1]): 8%
- Inhibition (Rattus norvegicus [9]): <10%
- Reduction (Rattus norvegicus [2]): 8%

SMILES: CCOC(=O)C(CC)c1nc(-c2ccc(Cl)cc2)oc1-c1ccco1 (configuration not stated)
- Reduction (Rattus norvegicus [1]): -10%
- Inhibition (Rattus norvegicus [8]): <10%
- Reduction (Rattus norvegicus [2]): 0%

SMILES: CCOC(=O)Cc1nc(-c2ccc(Cl)cc2)oc1-c1ccco1
- Reduction (Rattus norvegicus [1]): 35%
- Inhibition (Rattus norvegicus [7]): >=10%
- Reduction (Rattus norvegicus [2]): 23%

SMILES: CCOC(=O)Cc1nc(-c2ccc(Cl)c(Cl)c2)oc1-c1ccoc1
- Reduction (Rattus norvegicus [1]): 49%
- Inhibition (Rattus norvegicus [9]): <10%
- Reduction (Rattus norvegicus [2]): 19%

SMILES: CCOC(=O)C(C)c1nc(-c2ccc(Cl)cc2)oc1-c1ccoc1 (configuration not stated)
- Reduction (Rattus norvegicus [1]): 45%
- Inhibition (Rattus norvegicus [4]): >=10%
- Reduction (Rattus norvegicus [2]): 22%

SMILES: O=C(O)Cc1nc(C2CCCCC2)oc1-c1ccco1
- Reduction (Rattus norvegicus [1]): 18%
- Inhibition (Rattus norvegicus [7]): >=10%
- Reduction (Rattus norvegicus [2]): 13%

SMILES: O=C(O)Cc1nc(-c2ccc(Cl)cc2)oc1-c1ccoc1
- Reduction (Rattus norvegicus [1]): 42%
- Reduction (Rattus norvegicus [2]): 23%

SMILES: CCOC(=O)Cc1nc(-c2ccc(Cl)cc2)oc1-c1ccc(C=O)o1
- Reduction (Rattus norvegicus [5]): -5%
- Reduction (Rattus norvegicus [6]): 9%

SMILES: CCOC(=O)Cc1nc(C)oc1-c1ccco1
- inhibition (Rattus norvegicus [3]): No effect
- Reduction (Rattus norvegicus [10]): No effect
- Reduction (Rattus norvegicus [11]): No effect

SMILES: Cc1nc(CC(=O)O)c(-c2ccco2)o1
- Reduction (Rattus norvegicus [1]): -20%
- Inhibition (Rattus norvegicus [9]): <10%
- Reduction (Rattus norvegicus [2]): 10%

SMILES: O=C(O)Cc1nc(-c2ccccc2)oc1-c1ccco1
- Reduction (Rattus norvegicus [1]): 29%
- Inhibition (Rattus norvegicus [7]): >=10%
- Reduction (Rattus norvegicus [2]): 14%

SMILES: CCOC(=O)Cc1nc(C2CCCCC2)oc1-c1ccco1
- inhibition (Rattus norvegicus [3]): No effect
- Reduction (Rattus norvegicus [10]): No effect
- Reduction (Rattus norvegicus [11]): No effect

SMILES: CCOC(=O)Cc1nc(-c2ccc(Cl)cc2)sc1-c1ccco1
- Reduction (Rattus norvegicus [1]): 17%
- Reduction (Rattus norvegicus [2]): -15%

SMILES: CCOC(=O)C(C)(C)Oc1ccc(Cl)cc1 [CLOFIBRATE]
- Reduction (Rattus norvegicus [5]): 30%
- Reduction (Rattus norvegicus [6]): 15%
- Inhibition (Rattus norvegicus [9]): <10%

SMILES: O=C(O)Cc1nc(-c2ccc(Cl)c(Cl)c2)oc1-c1ccoc1
- Reduction (Rattus norvegicus [1]): 60%
- Inhibition (Rattus norvegicus [7]): >=10%
- Reduction (Rattus norvegicus [2]): 19%

SMILES: CCCCCCCc1nc(CC(=O)OCC)c(-c2ccsc2)o1
- inhibition (Rattus norvegicus [12]): No effect
- Reduction (Rattus norvegicus [13]): No effect
- Reduction (Rattus norvegicus [14]): No effect

SMILES: CC(C)c1nc(CC(=O)O)c(-c2ccco2)o1
- Reduction (Rattus norvegicus [1]): 9%
- Inhibition (Rattus norvegicus [9]): <10%
- Reduction (Rattus norvegicus [2]): 5%

SMILES: CCOC(=O)Cc1nc(-c2ccc(Cl)cc2)oc1N1CCCC1
- Reduction (Rattus norvegicus [1]): -20%
- Reduction (Rattus norvegicus [2]): -2%

SMILES: CC(C)c1nc(CC(=O)O)c(-c2ccsc2)o1
- Reduction (Rattus norvegicus [1]): 16%
- Inhibition (Rattus norvegicus [7]): >=10%
- Reduction (Rattus norvegicus [2]): 20%

SMILES: CCCCOC(=O)Cc1nc(-c2ccc(Cl)cc2)oc1-c1ccco1
- Reduction (Rattus norvegicus [1]): 27%
- Inhibition (Rattus norvegicus [9]): <10%
- Reduction (Rattus norvegicus [2]): 20%

SMILES: CCCCCCCCCCCCOC(=O)Cc1nc(-c2ccc(Cl)cc2)oc1-c1ccco1
- Reduction (Rattus norvegicus [5]): 30%
- Reduction (Rattus norvegicus [6]): 20%
- Inhibition (Rattus norvegicus [9]): <10%

SMILES: CCCCc1nc(CC(=O)OCC)c(-c2ccco2)o1
- Reduction (Rattus norvegicus [1]): 16%
- Reduction (Rattus norvegicus [2]): 2%

SMILES: CCOC(=O)Cc1nc(-c2ccc(Cl)cc2)oc1-c1ccoc1
- Reduction (Rattus norvegicus [1]): 42%
- Inhibition (Rattus norvegicus [7]): >=10%
- Reduction (Rattus norvegicus [2]): 25%

SMILES: Cc1ccc(-c2nc(CC(=O)O)c(-c3ccco3)o2)cc1
- Reduction (Rattus norvegicus [1]): 29%
- Inhibition (Rattus norvegicus [7]): >=10%
- Reduction (Rattus norvegicus [2]): 9%

SMILES: CC(=O)Oc1ccccc1C(=O)O
- inhibition (Rattus norvegicus [15]): Active

SMILES: CC(C)(C(=O)O)c1nc(-c2ccc(Cl)cc2)oc1-c1ccco1
- Reduction (Rattus norvegicus [1]): 54%
- Inhibition (Rattus norvegicus [8]): <10%
- Reduction (Rattus norvegicus [2]): 16%

SMILES: COc1ccc(-c2nc(CC(=O)O)c(-c3ccco3)o2)cc1
- Reduction (Rattus norvegicus [1]): -1%
- Inhibition (Rattus norvegicus [7]): >=10%
- Reduction (Rattus norvegicus [2]): 5%

SMILES: CCOC(=O)Cc1nc(C(C)C)oc1-c1ccco1
- Reduction (Rattus norvegicus [1]): 21%
- Inhibition (Rattus norvegicus [9]): <10%
- Reduction (Rattus norvegicus [2]): 12%
